Test results as given in patent publication US10301320B2, “Compositions and methods of modulating 15-PGDH activity” (CASE WESTERN RESERVE UNIVERSITY, priority 2012, dated 2019).
Read-outs that look alike come from different tables or passages of the source.

Target: recombinant 15-PGDH protein (Homo sapiens (Human), UniProt P15428)
Test: Inhibition of enzymatic activity of recombinant 15-PGDH in vitro;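 further: activity of recombinant human 15-PGDH assayed in vitro using PGE2 as the substrate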
Type: biochemical
Conditions: read-out: Enzyme inhibition % ([…]), recombinant 15-PGDH, […] compound
[1] = read-out: Enzyme inhibition % (2.5 μM)
[2] = read-out: Enzyme inhibition % (7.5 μM)

Chain of recombinant 15-PGDH protein (P15428 whole entry): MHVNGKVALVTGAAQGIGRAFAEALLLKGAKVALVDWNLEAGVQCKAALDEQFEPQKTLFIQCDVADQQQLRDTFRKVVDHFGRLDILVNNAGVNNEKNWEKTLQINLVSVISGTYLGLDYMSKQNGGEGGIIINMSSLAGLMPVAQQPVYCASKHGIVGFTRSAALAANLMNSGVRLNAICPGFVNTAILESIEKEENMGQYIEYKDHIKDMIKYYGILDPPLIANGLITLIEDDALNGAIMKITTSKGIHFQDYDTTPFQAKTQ

| inhibition at […] [1] [%] | inhibition at […] [2] [%] | Compound |
| --- | --- | --- |
| -12.2 | -10.5 | COc1ccc(OC)c(N(CC(=O)O)S(=O)(=O)c2ccccc2)c1 [SW122063] |
| 23.1 | 35.2 | COc1ccc(OC)c(N(CC(=O)N2CCCCC2)S(=O)(=O)c2ccccc2)c1 [SW131633] |
| 11.8 | 35.4 | COc1ccc(OC)c(N(CC(N)=O)S(=O)(=O)c2ccccc2)c1 [SW131635] |
| 52.7 | 75.6 | COc1ccc(OC)c(N(CC(=O)Nc2ccncc2)S(=O)(=O)c2ccccc2)c1 [SW202938] |
| 53.5 | 78.3 | COc1ccc(OC)c(N(CC(=O)Nc2cccnc2)S(=O)(=O)c2ccc(C)cc2)c1 [SW202939] |
| 10.9 | 35.6 | COc1ccc(OC)c(N(CC(=O)Nc2ccccn2)S(=O)(=O)c2ccccc2)c1 [SW202941] |
| -7.42 | 21.8 | COc1ccc(OC)c(N(CC(=O)Nc2cccnc2)S(=O)(=O)c2ccccc2C)c1 [SW202943] |
| 28.3 | 57.8 | COc1ccc(OC)c(N(CC(=O)Nc2cccnc2)S(=O)(=O)c2ccccc2C(F)(F)F)c1 [SW202944] |
| 8.83 | 11.1 | COc1ccc(OC)c(N(CC(=O)Nc2cccnc2)S(=O)(=O)c2ccccc2C#N)c1 [SW202945] |
| 81.6 | 89.8 | COc1ccc(OC)c(N(CC(=O)Nc2ccnc(Cl)c2)S(=O)(=O)c2ccccc2)c1 [SW202946] |
| 28.8 | 59.2 | COc1ccc(OC)c(N(CC(=O)Nc2cccnc2)S(=O)(=O)c2ccccc2F)c1 [SW202947] |
| 28.3 | 56.7 | COc1ccc(OC)c(NCC(=O)Nc2cccnc2)c1 [SW202948] |
| 12.5 | 34.4 | COc1ccc(OC)c(N(CC(=O)Nc2cccnc2)S(=O)(=O)c2ccccc2Cl)c1 [SW202949] |
| 46.3 | 56.4 | COc1ccc(OC)c(N(CC(=O)Nc2cccnc2)S(=O)(=O)c2ccc(C(C)=O)cc2)c1 [SW202950] |
| -15.4 | -8.59 | CCOC(=O)CN(c1cc(OC)ccc1OC)S(=O)(=O)c1ccccc1 [SW202951] |
| 29 | 57 | COc1ccc(OC)c(N(CC(=O)Nc2cccnc2)C(C)=O)c1 [SW202952] |
| 8.81 | 15.1 | COc1ccc(OC)c(N(CC(=O)Nc2cccnc2)S(=O)(=O)c2c(C)cc(C)cc2C)c1 [SW202953] |
| 6.02 | 9.88 | COc1ccc(OC)c(N(CC(=O)Nc2cccnc2)S(=O)(=O)c2ccccc2OC(F)(F)F)c1 [SW202954] |
| 11.3 | 33.1 | COc1ccc(OC)c(N(CC(=O)Nc2ccccc2OC)S(=O)(=O)c2ccccc2)c1 [SW202965] |
| 44.7 | 61.4 | COc1ccc(OC)c(N(CC(=O)Nc2ccnc(C)c2)S(=O)(=O)c2ccccc2)c1 [SW202966] |

| inhibition at […] [1] [%] | inhibition at […] [2] [%] | Compound |
| --- | --- | --- |
| -11.6 | 0.94 | COc1ccc(OC)c(N(CC(=O)Nc2cnccc2C)S(=O)(=O)c2ccccc2)c1 [SW202967] |
| -7.09 | 0.78 | COc1ccc(OC)c(N(CC(=O)Nc2cccnc2C)S(=O)(=O)c2ccccc2)c1 [SW202968] |
| 0.91 | 9.43 | COc1ccc(OC)c(N(CC(=O)Nc2cccc(C)c2)S(=O)(=O)c2ccccc2)c1 [SW202969] |
| 17.5 | 48 | COc1ccc(OC)c(N(CC(=O)Nc2ccc(Cl)nc2)S(=O)(=O)c2ccccc2)c1 [SW202970] |
| -0.72 | -13.2 | COc1ccc(OC)c(N(CC(=O)OC(C)C)S(=O)(=O)c2ccccc2)c1 [SW202971] |
| -6.29 | -2.94 | COc1ccc(OC)c(N(CC(=O)Nc2cc(C)cnc2Cl)S(=O)(=O)c2ccccc2)c1 [SW202972] |
| 3.3 | 13.6 | COc1ccc(OC)c(N(CC(=O)Nc2cccnc2Cl)S(=O)(=O)c2ccccc2)c1 [SW202973] |
| -4.42 | 24.9 | COc1ccc(OC)c(N(CC(=O)Nc2cncc(C)c2)S(=O)(=O)c2ccccc2)c1 [SW202974] |
| -14.8 | 4.53 | COc1ccc(OC)c(N(CC(=O)Nc2ccccc2C)S(=O)(=O)c2ccccc2)c1 [SW202975] |
| 7.87 | 29.8 | COc1cccc(NC(=O)CN(c2cc(OC)ccc2OC)S(=O)(=O)c2ccccc2)c1 [SW202976] |
| 4.14 | 3.12 | COc1ccc(OC)c(N(CC(=O)OC2CCCCC2)S(=O)(=O)c2ccccc2)c1 [SW202978] |
| 3.92 | 6.24 | COc1ccc(OC)c(N(CC(=O)OC(C)(C)C)S(=O)(=O)c2ccccc2)c1 [SW202979] |
| -4.19 | 1.44 | COC(=O)CN(c1cc(OC)ccc1OC)S(=O)(=O)c1ccccc1 [SW202980] |
| 13.8 | 30.9 | COc1ccc(OC)c(N(CC(=O)Nc2cccc(Cl)c2)S(=O)(=O)c2ccccc2)c1 [SW202985] |
| -2.22 | 2.58 | CCCOC(=O)CN(c1cc(OC)ccc1OC)[S@SP3](=O)(=O)c1ccccc1 [SW202986] |
| 4.61 | 6.13 | COc1ccc(OC)c(N(CC(=O)Nc2ccccc2Cl)S(=O)(=O)c2ccccc2)c1 [SW202987] |
| 10.3 | 33.7 | COc1ccc(OC)c(N(CC(=O)Nc2ccc(C)nc2)[S@SP3](=O)(=O)c2ccccc2)c1 [SW202988] |
| 81.3 | 89.9 | COc1ccc(S(=O)(=O)N(CC(=O)Nc2ccncc2)c2cc(OC)ccc2OC)cc1 [SW202989] |
| 22.9 | 47.2 | COc1ccc(OC)c(N(CC(=O)Nc2cncc(Cl)c2)S(=O)(=O)c2ccccc2)c1 [SW202990] |
| -14.7 | -6 | COc1ccc(OC)c(N(C(C)C(=O)Nc2cccnc2)S(=O)(=O)c2ccccc2)c1 (stereo not shown) [SW202991] |

| inhibition at […] [1] [%] | inhibition at […] [2] [%] | Compound |
| --- | --- | --- |
| 34.8 | 62.1 | COc1ccc(OC)c(N(CC(=O)Nc2cccnn2)S(=O)(=O)c2ccccc2)c1 [SW203680] |
| 36.8 | 64.9 | COc1ccc(OC)c(N(CC(=O)Nc2cnccn2)S(=O)(=O)c2ccccc2)c1 [SW203681] |
| 15.7 | 36.2 | CNC(=O)CN(c1cc(OC)ccc1OC)S(=O)(=O)c1ccccc1 [SW203682] |
| 23.4 | 57.1 | COc1ccc(OC)c(N(CC(=O)Nc2cncnc2)S(=O)(=O)c2ccccc2)c1 [SW203683] |
| 36.4 | 64.7 | COc1ccc(OC)c(N(CC(=O)Nc2cccnc2)S(=O)(=O)c2cccc(C)c2)c1 [SW203684] |
| 44.3 | 73.3 | COc1ccc(OC)c(N(CC(=O)Nc2ccnnc2)S(=O)(=O)c2ccccc2)c1 [SW203685] |
| 14.9 | 34.2 | COc1ccc(OC)c(N(CC(=O)N(C)c2cccnc2)S(=O)(=O)c2ccccc2)c1 [SW203686] |
| 15.1 | 33.5 | COc1ccc(OC)c(N(CC(=O)Nc2ccccc2)S(=O)(=O)c2ccccc2)c1 [SW203687] |
| 13.1 | 40 | COc1ccc(OC)c(CN(CC(=O)Nc2cccnc2)S(=O)(=O)c2ccccc2)c1 [SW203688] |
| 2.62 | – | COc1ccc(OC)c(N(CC(=O)Nc2nccs2)S(=O)(=O)c2ccccc2)c1 [SW203691] |
| 5.82 | 12.5 | COc1ccc(OC)c(N(CC(=O)N2CCCCCC2)S(=O)(=O)c2ccccc2)c1 [SW208000] |
| 21.8 | 27.7 | COc1ccc(OC)c(N(CC(=O)N2CCCC2)S(=O)(=O)c2ccccc2)c1 [SW208001] |
| 34.7 | 59.2 | COc1ccc(OC)c(N(CC(=O)N2CCCC2=O)S(=O)(=O)c2ccccc2)c1 [SW208002] |
| 15.2 | 20.9 | COc1ccc(OC)c(N(CC(=O)N2CCc3ccccc32)S(=O)(=O)c2ccccc2)c1 [SW208003] |
| 52.3 | 57 | COc1ccc(OC)c(N(CC(=O)Nc2ccncc2F)S(=O)(=O)c2ccccc2)c1 [SW208004] |
| 44.1 | 52 | COc1ccc(OC)c(N(CC(=O)Nc2ccnc(F)c2)S(=O)(=O)c2ccccc2)c1 [SW208005] |
| 15.7 | 24.8 | COc1ccc(OC)c(N(CC(=O)N2CCCc3ccccc32)S(=O)(=O)c2ccccc2)c1 [SW208006] |
| 58.7 | 70.9 | COc1ccc(S(=O)(=O)N(CC(=O)Nc2cccnc2)c2cc(C(F)(F)F)ccc2C(F)(F)F)cc1 [SW208008] |
